Patent US20010006961A1, “METHOD FOR IMPROVING FRUIT YIELDS FROM BANANA PLANTS” (priority 1995, published 2001)

Tests used:
banana plants [1] = assay: In vivo test on a banana plantation, fosetyl-Al wettable powder applied with a knapsack sprayer (Example 1)
Experimental: Example 1: In viva test of a composition comprising fosetyl-Al on a banana plantation:
(§1) The test is carried out on a plantation of banana plants which have reached a stage of regular fruit production. This plantation is furthermore treated periodically throughout the duration of the test by means of a conventional protective treatment against various fungal diseases, as well as against harmful insects and nematodes, which treatment is known to have no effect of the type of those observed below with fosetyl-Al.
The duration of the test is 2 years.
At the beginning of the first year, treatment with fosetyl-Al is carried out. For this, use is made of a wettable powder formulation of fosetyl-Al diluted in water before use, which is applied by means of a knapsack sprayer. The application dose is 6.4 kg of fosetyl-Al per hectare. This application of fosetyl-Al is repeated every 3 months throughout the duration of the test.
The average weight of a bunch of bananas harvested per plant is measured. The mean value of this weight, during the 2nd year of the test, is equal to 39.8 kg.
In comparison, a control test was carried out, in which there was no application of fosetyl-Al, the protocol otherwise being identical. This test gave 38.4 kg as the average value of the weight of a bunch of bananas harvested per plant, measured under the same conditions as above.

banana plants [2] = assay: In vivo test on a banana plantation on a soil of different nature, treatment carried out with an aeroplane (Example 2); conditions: applied by aeroplane, control 37.4 kg
Text: Example 2: In vivo test of a composition comprising fosetyl-Al on a banana plantation:
Example 1 is repeated, a plantation situated on a soil of different nature being treated and the treatment being carried out with an aeroplane. The fosetyl-Al doses applied are shown in the table below, along with the average banana bunch weights obtained.

banana plants [3] = assay: In vivo test of application by injection into the growing pseudostem (Example 3); conditions: 6 kg/ha (3 g per plant) injected into pseudostem 1 month before flowering; harvest 4 months later; control 28.3 kg
Experimental: Example 3: In vivo test of the application of a composition comprising fosetyl-Al by injection into the growing pseudostem:
as §1, with “preventive” for “protective”
Fosetyl-Al is injected into the pseudostem of the growing banana plants, in the proportion of 6 kg/ha (i.e. 3 g of fosetyl-Al per plant), 1 month before flowering.
The fruits are harvested 4 months later. The average weight of the bunch of bananas is 31.4 kg. The average weight of a bunch of bananas corresponding to the control test (untreated banana plants) is 28.3 kg.

Structure (SMILES): CCO[PH](=O)[O-].CCO[PH](=O)[O-].CCO[PH](=O)[O-].[Al+3] [fosetyl-Al, aluminium tris(O-ethyl phosphonate)]
- average weight of a bunch of bananas harvested per plant (banana plants [1]; 6.4 kg fosetyl-Al per hectare, sprayed every 3 months, mean value during 2nd year of the test, control 38.4 kg): 39.8 kg
- difference in average bunch weight versus control, relative value (banana plants [1]; 6.4 kg/ha every 3 months, 39.8 kg vs control 38.4 kg): 5%
- additional amount of fruit (banana plants [1]; in the case where the yield of the banana plantation is 40 tonnes/hectare of bananas): ~2 tonnes
- Average weight of a bunch (banana plants [2]; fosetyl-Al dose 3.2 kg/ha): 38.9 kg
- Average weight of a bunch (banana plants [2]; fosetyl-Al dose 6.4 kg/ha): 39.7 kg
- average weight of the bunch of bananas (banana plants [3]): 31.4 kg
